This note sets out measurements from ChEMBL document CHEMBL1134971, “Novel human histamine H(3) receptor antagonists” (Bioorg Med Chem Lett, 2002).

Structures are written as SMILES.

System in the first data set: not listed separately
Kind of data set: Oral bioavailability in rat. The following applies: in vivo, read-out: Bioavailabiility. The class given is ADME, organism-based.
On to `Cc1ccn2cc(-c3ccc(OCCCN4CCCCC4)cc3)nc2c1`, for which the bioavailability turned out to be 57%.

System in another data set: not listed separately
The data set is described as follows: Half life in rat was tested. The class given is ADME, organism-based. The following applies: in vivo.
For `Cc1ccn2cc(-c3ccc(OCCCN4CCCCC4)cc3)nc2c1`, the half-life is 5.2 h.

A further data set deals with T1, Histamine H3 receptor (Homo sapiens, UniProt Q9Y5N1). The data set is described as follows: Compound was tested for its binding affinity against human histamine H3 receptor.
T1 sequence (Q9Y5N1 whole entry): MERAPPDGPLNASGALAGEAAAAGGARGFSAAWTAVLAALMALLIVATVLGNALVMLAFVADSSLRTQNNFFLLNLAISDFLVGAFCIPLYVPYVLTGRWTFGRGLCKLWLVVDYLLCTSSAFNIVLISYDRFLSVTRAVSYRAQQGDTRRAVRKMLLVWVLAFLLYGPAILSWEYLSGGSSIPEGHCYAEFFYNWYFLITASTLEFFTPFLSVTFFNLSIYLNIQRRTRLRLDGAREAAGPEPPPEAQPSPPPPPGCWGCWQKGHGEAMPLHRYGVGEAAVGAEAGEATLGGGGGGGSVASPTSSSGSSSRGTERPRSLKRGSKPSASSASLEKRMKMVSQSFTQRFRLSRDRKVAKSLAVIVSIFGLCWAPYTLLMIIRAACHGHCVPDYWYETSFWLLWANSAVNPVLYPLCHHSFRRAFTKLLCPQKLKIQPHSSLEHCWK
Settings: not given
On to `CCCCN(CCCC)CCCOc1ccc(-c2cn3cccc(C)c3n2)cc1`, for which the Ki turned out to be 4000 nM.

For another data set, the target named is T1, Histamine H3 receptor. The data set is described as follows: Binding affinity for human histamine H3 receptor.
Settings: not given
In turn, `Cc1cccn2cc(-c3ccc(OCCCN(C(C)c4ccccc4)C(C)c4ccccc4)cc3)nc12` (configuration not stated) gave a Ki of 4000 nM. The same measure, in the same setting: in the case of `Cc1ccn2cc(-c3ccc(C#CCCN4CCCCC4)cc3)nc2c1` it was 7 nM; in that of `Cc1ccn2cc(-c3ccc(CCCCN4CCCCC4)cc3)nc2c1`, 17 nM. The same measure, in the same setting: the same measure for `c1ccn2cc(-c3ccc(OCCCN4CCCCC4)cc3)nc2c1`: 6 nM.

With `CCCCN(CCCC)CCCOc1ccc(-c2nc3c(C)cccn3c2C)cc1`, the affinity corresponds to a Ki of 870 nM.

Turning to `CCCCN(CCCC)CCCOc1ccc(-c2cn3cccc([N+](=O)[O-])c3n2)cc1`, the Ki was 11000 nM. On the same count and under the same terms, the same measure for `Cc1ccn2cc(-c3ccc(/C=C/CCN4CCCCC4)cc3)nc2c1`: 22 nM; for `Cc1cc(-c2cn3ccccc3n2)ccc1OCCCN1CCCCC1`: 28 nM. On to `Cc1cccn2cc(-c3ccc(OCCCN4CCOCC4)cc3)nc12`, for which the Ki is 80 nM. In turn, `Cc1ccn2cc(-c3ccc(OCCCN4CCCCC4)cc3C)nc2c1` displayed a Ki of 2 nM. On the same count and under the same terms, in the case of `Cc1ccn2cc(-c3ccc(OCCCN4CCCC4)cc3)nc2c1` it was 5 nM; in that of `COc1cc(-c2cn3ccc(C)cc3n2)ccc1OCCCN1CCCCC1`, 69 nM; in that of `Cc1cccn2cc(-c3ccc(OCCCn4ccnc4)cc3)nc12`, 1000 nM. The compound `Cc1cccn2cc(-c3ccc(NCCCN4CCCCC4)cc3)nc12` yielded a Ki of 15 nM. In turn, `Cc1cccn2cc(-c3ccc(NS(=O)(=O)CCCN4CCCCC4)cc3)nc12` yielded a Ki of 500 nM. In turn, `Cc1cccn2cc(-c3ccc(OCCCN(C)C)cc3)nc12` registered a Ki of 13 nM. `Cc1cccn2cc(-c3ccc(OCCCN4CCCCC4)cc3)nc12`: the Ki was 3 nM.

Regarding `Cc1cccn2cc(-c3ccc(NC(=O)CCN4CCCCC4)cc3)nc12`, the affinity corresponds to a Ki of 300 nM. On the same count and under the same terms, in the case of `CCCN(CCC)CCCOc1ccc(-c2cn3cccc(C)c3n2)cc1` it was 43 nM. In turn, `Cc1ccn2cc(-c3ccc(OCCCN4CCCCCC4)cc3)nc2c1` registered a Ki of 6 nM.

Another data set deals with Histamine H3 receptor (Rattus norvegicus) (UniProt Q9QYN8). Kind of data set: Ex-vivo effective dose required for rat histamine H3 receptor occupancy by the compound using [3H]R-alpha-methylhistamine upon subcutaneous administration.
Histamine H3 receptor (Rattus norvegicus), sequence (Q9QYN8 whole entry): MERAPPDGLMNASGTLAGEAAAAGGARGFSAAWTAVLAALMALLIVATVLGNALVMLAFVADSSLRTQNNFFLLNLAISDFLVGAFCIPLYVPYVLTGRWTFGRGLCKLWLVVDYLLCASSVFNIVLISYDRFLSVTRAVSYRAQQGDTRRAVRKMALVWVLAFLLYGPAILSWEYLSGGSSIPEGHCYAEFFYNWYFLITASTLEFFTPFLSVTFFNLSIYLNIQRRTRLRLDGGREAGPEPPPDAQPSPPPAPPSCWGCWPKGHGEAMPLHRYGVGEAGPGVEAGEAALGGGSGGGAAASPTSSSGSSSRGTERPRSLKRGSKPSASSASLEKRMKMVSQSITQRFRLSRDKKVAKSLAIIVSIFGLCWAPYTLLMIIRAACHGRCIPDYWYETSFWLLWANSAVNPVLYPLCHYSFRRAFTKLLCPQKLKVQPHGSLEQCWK
Settings: not given
As for `Cc1ccn2cc(-c3ccc(OCCCN4CCCCC4)cc3)nc2c1`, the 50% effect level (ED50) was put at a dose of 0.2 mg/kg. Compound `S=C(NC1CCCCC1)N1CCC(c2cnc[nH]2)CC1` had an ED50 of 2 mg/kg.

For the next data set, the target named is T2, Histamine H3 receptor (Rattus norvegicus, UniProt Q9QYN8). The data set is described as follows: Antagonist activity for rat histamine H3 receptor was determined. The conditions noted are these: read-out: pA2 (converted). Type of data set: functional.
T2 sequence (Q9QYN8 whole entry): as above
Take `Cc1ccn2cc(-c3ccc(OCCCN4CCCCC4)cc3)nc2c1`: the Kb is 4.68 nM.

A further data set deals with T2, Histamine H3 receptor. The data set is described as follows: Compound was tested for its binding affinity for rat histamine H3 receptor.
Settings: not given
On to `Cc1ccn2cc(-c3ccc(OCCCN4CCCCC4)cc3)nc2c1`, for which the affinity, expressed as Ki, was 10 nM.
